Assays:
Assay in all cases: relative viability (nuclei count vs DMSO), 5 days (fraction); higher = more cells survive
NCI-H2347 = tested on: NCI-H2347
How it was run: (§1)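 Lung cancer cell lines were seeded in 1536-well plates and dosed by pin tool the next day, with either a single drug or a fixed anchor-drug dose combined with five library-drug doses (not always all listed) spaced in √10 steps. Five days later, one step fixed the cells and stained their nuclei (final 0.05% Triton X-100, 1% formaldehyde, 1 ug/ml Hoechst), and nuclei were counted on 4× images. Relative viability is the nuclei count in treated wells divided by the count in vehicle wells, and each value is the median of duplicate plates.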

NCI-H838 = tested on: NCI-H838
How it was run: as §1

NCI-H2009 = tested on: NCI-H2009
How it was run: as §1

NCI-H1993 = tested on: NCI-H1993
How it was run: as §1

SK-MES-1 = tested on: SK-MES-1
How it was run: as §1

PC-14 = tested on: PC-14
How it was run: as §1

NCI-H1355 = tested on: NCI-H1355
How it was run: as §1

NCI-H1755 = tested on: NCI-H1755
How it was run: as §1

NCI-H1734 = tested on: NCI-H1734
How it was run: as §1

NCI-H2228 = tested on: NCI-H2228
How it was run: as §1

HCC-15 = tested on: HCC-15
How it was run: as §1

HARA = tested on: HARA
How it was run: as §1

NCI-H2170 = tested on: NCI-H2170
How it was run: as §1

NCI-H1395 = tested on: NCI-H1395
How it was run: as §1

COR-L23 = tested on: COR-L23
How it was run: as §1

HOP-62 = tested on: HOP-62
How it was run: as §1

NCI-H1793 = tested on: NCI-H1793
How it was run: as §1

UMC-11 = tested on: UMC-11
How it was run: as §1

EKVX = tested on: EKVX
How it was run: as §1

COR-L 105 = tested on: COR-L 105
How it was run: as §1

NCI-H647 = tested on: NCI-H647
How it was run: as §1

NCI-H358 = tested on: NCI-H358
How it was run: as §1

O=C(O)c1ccc(-c2c[nH]c3ncc(-c4ccccc4)cc23)cc1C1CCCC1 + CC1(C)CCC(c2ccc(Cl)cc2)=C(CN2CCN(c3ccc(C(=O)NS(=O)(=O)c4ccc(N[C@H](CCN5CCOCC5)CSc5ccccc5)c(S(=O)(=O)C(F)(F)F)c4)cc3)CC2)C1 [Navitoclax] (partner 0.5 µM)
relative viability (NCI-H2347; first compound 0.04 µM): 0.778
relative viability (NCI-H2347; first compound 0.1265 µM): 0.821
relative viability (NCI-H2347; first compound 0.4 µM): 0.761
relative viability (NCI-H2347; first compound 1.265 µM): 0.612
relative viability (NCI-H838; first compound 0.04 µM): 1.15
relative viability (NCI-H838; first compound 0.1265 µM): 1.27
relative viability (NCI-H838; first compound 0.4 µM): 1.22
relative viability (NCI-H838; first compound 1.265 µM): 1.07
relative viability (NCI-H2009; first compound 0.04 µM): 1.15
relative viability (NCI-H2009; first compound 0.1265 µM): 1.1
relative viability (NCI-H2009; first compound 0.4 µM): 1.15
relative viability (NCI-H2009; first compound 1.265 µM): 0.969
relative viability (NCI-H1993; first compound 0.04 µM): 0.955
relative viability (NCI-H1993; first compound 0.4 µM): 0.986
relative viability (NCI-H1993; first compound 1.265 µM): 0.795
relative viability (SK-MES-1; first compound 0.04 µM): 1.19
relative viability (SK-MES-1; first compound 0.1265 µM): 1.24
relative viability (SK-MES-1; first compound 0.4 µM): 1.05
relative viability (SK-MES-1; first compound 1.265 µM): 0.798
relative viability (PC-14; first compound 0.04 µM): 1.01
relative viability (PC-14; first compound 0.1265 µM): 1.1
relative viability (PC-14; first compound 0.4 µM): 1.03
relative viability (PC-14; first compound 1.265 µM): 0.814
relative viability (NCI-H1355; first compound 0.04 µM): 0.995
relative viability (NCI-H1355; first compound 0.1265 µM): 0.957
relative viability (NCI-H1355; first compound 0.4 µM): 1.03
relative viability (NCI-H1355; first compound 1.265 µM): 0.683
relative viability (NCI-H1755; first compound 0.04 µM): 0.98
relative viability (NCI-H1755; first compound 0.1265 µM): 1.05
relative viability (NCI-H1755; first compound 0.4 µM): 1.03
relative viability (NCI-H1755; first compound 1.265 µM): 0.927
relative viability (NCI-H1734; first compound 0.04 µM): 0.706
relative viability (NCI-H1734; first compound 0.1265 µM): 0.916
relative viability (NCI-H1734; first compound 0.4 µM): 0.878
relative viability (NCI-H1734; first compound 1.265 µM): 0.686
relative viability (NCI-H2228; first compound 0.04 µM): 0.927
relative viability (NCI-H2228; first compound 0.1265 µM): 0.778
relative viability (NCI-H2228; first compound 0.4 µM): 0.98
relative viability (NCI-H2228; first compound 1.265 µM): 0.793
relative viability (HCC-15; first compound 0.04 µM): 0.697
relative viability (HCC-15; first compound 0.1265 µM): 0.746
relative viability (HCC-15; first compound 0.4 µM): 0.662
relative viability (HCC-15; first compound 1.265 µM): 0.373
relative viability (HARA; first compound 0.04 µM): 1.08
relative viability (HARA; first compound 0.1265 µM): 1.14
relative viability (HARA; first compound 0.4 µM): 1.09
relative viability (HARA; first compound 1.265 µM): 1.04
relative viability (NCI-H2170; first compound 0.04 µM): 0.605
relative viability (NCI-H2170; first compound 0.1265 µM): 0.64
relative viability (NCI-H2170; first compound 0.4 µM): 0.483
relative viability (NCI-H2170; first compound 1.265 µM): 0.503
relative viability (NCI-H1395; first compound 0.04 µM): 1.13
relative viability (NCI-H1395; first compound 0.1265 µM): 1.05
relative viability (NCI-H1395; first compound 0.4 µM): 1.03
relative viability (NCI-H1395; first compound 1.265 µM): 0.915
relative viability (COR-L23; first compound 0.04 µM): 1.01
relative viability (COR-L23; first compound 0.1265 µM): 1.04
relative viability (COR-L23; first compound 0.4 µM): 1.09
relative viability (COR-L23; first compound 1.265 µM): 0.64
relative viability (HOP-62; first compound 0.04 µM): 1.05
relative viability (HOP-62; first compound 0.1265 µM): 1.13
relative viability (HOP-62; first compound 0.4 µM): 1.05
relative viability (HOP-62; first compound 1.265 µM): 0.76
relative viability (NCI-H1793; first compound 0.04 µM): 0.538
relative viability (NCI-H1793; first compound 0.1265 µM): 0.383
relative viability (NCI-H1793; first compound 0.4 µM): 0.494
relative viability (NCI-H1793; first compound 1.265 µM): 0.286
relative viability (UMC-11; first compound 0.04 µM): 0.318
relative viability (UMC-11; first compound 0.1265 µM): 0.299
relative viability (UMC-11; first compound 0.4 µM): 0.328
relative viability (UMC-11; first compound 1.265 µM): 0.222
relative viability (EKVX; first compound 0.04 µM): 0.92
relative viability (EKVX; first compound 0.1265 µM): 0.967
relative viability (EKVX; first compound 0.4 µM): 1.03
relative viability (EKVX; first compound 1.265 µM): 0.655
relative viability (COR-L 105; first compound 0.04 µM): 0.818
relative viability (COR-L 105; first compound 0.1265 µM): 0.95
relative viability (COR-L 105; first compound 0.4 µM): 0.733
relative viability (COR-L 105; first compound 1.265 µM): 0.717
relative viability (NCI-H647; first compound 0.04 µM): 1.1
relative viability (NCI-H647; first compound 0.1265 µM): 1.13
relative viability (NCI-H647; first compound 0.4 µM): 1.04
relative viability (NCI-H647; first compound 1.265 µM): 0.713

O=C(O)c1ccc(-c2c[nH]c3ncc(-c4ccccc4)cc23)cc1C1CCCC1 + C[C@]1(O)C[C@@H](c2nc(-c3ccc4ccc(-c5ccccc5)nc4c3)c3c(N)nccn32)C1 [Linsitinib] (partner 1 µM)
relative viability (NCI-H2347; first compound 0.04 µM): 0.975
relative viability (NCI-H2347; first compound 0.1265 µM): 1.11
relative viability (NCI-H2347; first compound 0.4 µM): 0.927
relative viability (NCI-H2347; first compound 1.265 µM): 0.67
relative viability (NCI-H838; first compound 0.04 µM): 1.03
relative viability (NCI-H838; first compound 0.1265 µM): 1.16
relative viability (NCI-H838; first compound 0.4 µM): 1.09
relative viability (NCI-H838; first compound 1.265 µM): 0.997
relative viability (NCI-H2009; first compound 0.04 µM): 1.23
relative viability (NCI-H2009; first compound 0.1265 µM): 1.21
relative viability (NCI-H2009; first compound 0.4 µM): 1.15
relative viability (NCI-H2009; first compound 1.265 µM): 1.08
relative viability (NCI-H1993; first compound 0.04 µM): 0.745
relative viability (NCI-H1993; first compound 0.4 µM): 0.681
relative viability (NCI-H1993; first compound 1.265 µM): 0.753
relative viability (SK-MES-1; first compound 0.04 µM): 1.18
relative viability (SK-MES-1; first compound 0.1265 µM): 1.09
relative viability (SK-MES-1; first compound 0.4 µM): 0.997
relative viability (SK-MES-1; first compound 1.265 µM): 0.749
relative viability (PC-14; first compound 0.04 µM): 0.937
relative viability (PC-14; first compound 0.1265 µM): 0.947
relative viability (PC-14; first compound 0.4 µM): 1.01
relative viability (PC-14; first compound 1.265 µM): 0.798
relative viability (NCI-H1355; first compound 0.04 µM): 0.848
relative viability (NCI-H1355; first compound 0.1265 µM): 0.79
relative viability (NCI-H1355; first compound 0.4 µM): 0.887
relative viability (NCI-H1355; first compound 1.265 µM): 0.633
relative viability (NCI-H1755; first compound 0.04 µM): 0.96
relative viability (NCI-H1755; first compound 0.1265 µM): 1.01
relative viability (NCI-H1755; first compound 0.4 µM): 1.02
relative viability (NCI-H1755; first compound 1.265 µM): 0.961
relative viability (NCI-H1734; first compound 0.04 µM): 0.917
relative viability (NCI-H1734; first compound 0.1265 µM): 0.938
relative viability (NCI-H1734; first compound 0.4 µM): 0.816
relative viability (NCI-H1734; first compound 1.265 µM): 0.823
relative viability (NCI-H2228; first compound 0.04 µM): 0.726
relative viability (NCI-H2228; first compound 0.1265 µM): 0.729
relative viability (NCI-H2228; first compound 0.4 µM): 0.813
relative viability (NCI-H2228; first compound 1.265 µM): 0.589
relative viability (HCC-15; first compound 0.04 µM): 0.869
relative viability (HCC-15; first compound 0.1265 µM): 0.928
relative viability (HCC-15; first compound 0.4 µM): 0.785
relative viability (HCC-15; first compound 1.265 µM): 0.567
relative viability (HARA; first compound 0.04 µM): 0.905
relative viability (HARA; first compound 0.1265 µM): 0.983
relative viability (HARA; first compound 0.4 µM): 0.994
relative viability (HARA; first compound 1.265 µM): 0.748
relative viability (NCI-H1395; first compound 0.04 µM): 1.11
relative viability (NCI-H1395; first compound 0.1265 µM): 1.06
relative viability (NCI-H1395; first compound 0.4 µM): 1.08
relative viability (NCI-H1395; first compound 1.265 µM): 0.796
relative viability (COR-L23; first compound 0.04 µM): 0.866
relative viability (COR-L23; first compound 0.1265 µM): 0.951
relative viability (COR-L23; first compound 0.4 µM): 0.771
relative viability (COR-L23; first compound 1.265 µM): 0.444
relative viability (HOP-62; first compound 0.04 µM): 1.1
relative viability (HOP-62; first compound 0.1265 µM): 1.03
relative viability (HOP-62; first compound 0.4 µM): 1.04
relative viability (HOP-62; first compound 1.265 µM): 0.794
relative viability (NCI-H1793; first compound 0.04 µM): 0.909
relative viability (NCI-H1793; first compound 0.1265 µM): 0.986
relative viability (NCI-H1793; first compound 0.4 µM): 1.09
relative viability (NCI-H1793; first compound 1.265 µM): 0.889
relative viability (UMC-11; first compound 0.04 µM): 0.98
relative viability (UMC-11; first compound 0.1265 µM): 1.04
relative viability (UMC-11; first compound 0.4 µM): 1.07
relative viability (UMC-11; first compound 1.265 µM): 0.971
relative viability (EKVX; first compound 0.04 µM): 0.984
relative viability (EKVX; first compound 0.1265 µM): 1.18
relative viability (EKVX; first compound 0.4 µM): 1.11
relative viability (EKVX; first compound 1.265 µM): 0.713
relative viability (COR-L 105; first compound 0.04 µM): 1.07
relative viability (COR-L 105; first compound 0.1265 µM): 0.919
relative viability (COR-L 105; first compound 0.4 µM): 1
relative viability (COR-L 105; first compound 1.265 µM): 0.92
relative viability (NCI-H647; first compound 0.04 µM): 1.18
relative viability (NCI-H647; first compound 0.1265 µM): 1.18
relative viability (NCI-H647; first compound 0.4 µM): 1.02
relative viability (NCI-H647; first compound 1.265 µM): 1.03
relative viability (NCI-H358; first compound 0.04 µM): 0.649
relative viability (NCI-H358; first compound 0.1265 µM): 0.819
relative viability (NCI-H358; first compound 0.4 µM): 0.674
relative viability (NCI-H358; first compound 1.265 µM): 0.386

Reference: the supplement of paper PMC10307832
